In this assay the test system is BDF1 mice, P388 leukemia ip, median survival T/C. In words: NCI In Vivo Anticancer Drug Screen. Data for tumor model P388 Leukemia (intraperitoneal) in B6D2F1 (BDF1) mice. As to conditions: endpoint: median survival time, higher = longer survival. The essentials: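 In tumour-bearing mice, survival after compound treatment is set against the vehicle group and given as a quotient.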

Where [1] appears, read: dose: 100.0 mg/kg/injection, schedule: Q01DX009 (ip), vehicle: saline with Tween-80.
The mark [2] stands for this setting: dose: 200.0 mg/kg/injection, schedule: Q01DX009 (ip), vehicle: saline with Tween-80.
The mark [3] stands for this setting: dose: 50.0 mg/kg/injection, schedule: Q01DX009 (ip), vehicle: saline with Tween-80.
[4] abbreviates: dose: 25.0 mg/kg/injection, schedule: Q04DX003 (ip), vehicle: Klucel (hydroxypropylcellulose) (HPC).
Setting [5] is: dose: 50.0 mg/kg/injection, schedule: Q04DX003 (ip), vehicle: Klucel (hydroxypropylcellulose) (HPC).
The mark [6] stands for this setting: dose: 100.0 mg/kg/injection, schedule: Q04DX003 (ip), vehicle: Klucel (hydroxypropylcellulose) (HPC).
Setting [7] is: dose: 200.0 mg/kg/injection, schedule: Q04DX003 (ip), vehicle: Klucel (hydroxypropylcellulose) (HPC).
Where [8] appears, read: dose: 50.0 mg/kg/injection, schedule: Q04DX003 (ip), vehicle: saline.
Setting [9] is: dose: 25.0 mg/kg/injection, schedule: Q01DX009 (ip), vehicle: saline.

The structures appear in SMILES notation. Values joined by “and” are separate entries in the source; they are usually repeats but may differ in a detail not shown here. Identical values can stand only once. Inconclusive results and toxic doses are left out.

As to `C[C@]12C[C@@H](F)C(=O)C[C@@H]1CC[C@@H]1[C@@H]2CC[C@]2(C)[C@@H](O)CC[C@@H]12`, the T/C reads like this: under setting [1], 95 % of control; (dose: 100.0 mg/kg/injection, schedule: Q04DX003 (ip), vehicle: saline with Tween-80) 110 % of control; under setting [2], 95 % of control; (dose: 200.0 mg/kg/injection, schedule: Q04DX003 (ip), vehicle: saline with Tween-80) 100 % of control; (dose: 400.0 mg/kg/injection, schedule: Q01DX009 (ip), vehicle: saline with Tween-80) 100 % of control; (dose: 400.0 mg/kg/injection, schedule: Q04DX003 (ip), vehicle: saline with Tween-80) 105 % of control.

In the case of `CS(=O)CC(O)(c1ccccc1)c1ccncc1` (stereo unspecified), the T/C is 99 % of control under setting [3], 112 % of control under setting [1] and 110 % of control under setting [2].

`CCOC(=O)C[Si](C)(C)C`: the T/C runs as follows: under setting [4], 99 % of control; under setting [5], 99 % of control; under setting [6], 97 % of control; under setting [7], 101 % of control; (dose: 400.0 mg/kg/injection, schedule: Q04DX003 (ip), vehicle: Klucel (hydroxypropylcellulose) (HPC)) 109 % of control.

On to `Nc1nc(=O)n(C2OC(CO)C(O)C2O)c2scnc12` (stereo unspecified), for which the T/C was 108 % of control (dose: 25.0 mg/kg/injection, schedule: Q04DX003 (ip), vehicle: saline); 118 % of control under setting [8]; 118 % of control (dose: 100.0 mg/kg/injection, schedule: Q04DX003 (ip), vehicle: saline); 108 % of control (dose: 200.0 mg/kg/injection, schedule: Q04DX003 (ip), vehicle: saline).

In the case of `O=NN(CCCl)C(=O)N[C@@H]1CCCC[C@H]1NC(=O)N(CCCl)N=O`, the T/C by setting is: (dose: 0.12 mg/kg/injection, schedule: Q04DX003 (ip), vehicle: Klucel (hydroxypropylcellulose) (HPC)) 120 % of control; (dose: 0.18 mg/kg/injection, schedule: Q01DX009 (ip), vehicle: Klucel (hydroxypropylcellulose) (HPC)) 100 % of control; (dose: 0.25 mg/kg/injection, schedule: Q04DX003 (ip), vehicle: Klucel (hydroxypropylcellulose) (HPC)) 100 % of control; (dose: 0.37 mg/kg/injection, schedule: Q01DX009 (ip), vehicle: Klucel (hydroxypropylcellulose) (HPC)) 88 % of control; (dose: 0.5 mg/kg/injection, schedule: Q04DX003 (ip), vehicle: Klucel (hydroxypropylcellulose) (HPC)) 108 % of control; (dose: 0.75 mg/kg/injection, schedule: Q01DX009 (ip), vehicle: Klucel (hydroxypropylcellulose) (HPC)) 88 % of control. Also, the T/C reads like this: (dose: 1.0 mg/kg/injection, schedule: Q04DX003 (ip), vehicle: Klucel (hydroxypropylcellulose) (HPC)) 150 % of control; (dose: 1.5 mg/kg/injection, schedule: Q01DX009 (ip), vehicle: Klucel (hydroxypropylcellulose) (HPC)) 88 % of control; (dose: 2.0 mg/kg/injection, schedule: Q04DX003 (ip), vehicle: Klucel (hydroxypropylcellulose) (HPC)) 113 % of control; (dose: 3.0 mg/kg/injection, schedule: Q04DX003 (ip), vehicle: Klucel (hydroxypropylcellulose) (HPC)) 109 % of control; (dose: 4.5 mg/kg/injection, schedule: Q01DX009 (ip), vehicle: Klucel (hydroxypropylcellulose) (HPC)) 191 % of control; (dose: 6.0 mg/kg/injection, schedule: Q01DX009 (ip), vehicle: Klucel (hydroxypropylcellulose) (HPC)) 172 % of control. In addition, the T/C (dose: 6.0 mg/kg/injection, schedule: Q04DX003 (ip), vehicle: Klucel (hydroxypropylcellulose) (HPC)) is 150 % of control and 162 % of control and 172 % of control; the T/C (dose: 7.0 mg/kg/injection, schedule: Q01DX009 (ip), vehicle: Klucel (hydroxypropylcellulose) (HPC)) is 233 % of control; the T/C (dose: 9.0 mg/kg/injection, schedule: Q04DX003 (ip), vehicle: Klucel (hydroxypropylcellulose) (HPC)) is 213 % of control; the T/C (dose: 11.0 mg/kg/injection, schedule: Q01DX009 (ip), vehicle: Klucel (hydroxypropylcellulose) (HPC)) was 237 % of control and 250 % of control; the T/C (dose: 12.0 mg/kg/injection, schedule: Q01DX009 (ip), vehicle: Klucel (hydroxypropylcellulose) (HPC)) was 250 % of control; the T/C (dose: 12.0 mg/kg/injection, schedule: Q04DX003 (ip), vehicle: Klucel (hydroxypropylcellulose) (HPC)) was 159 % of control. The T/C runs as follows: (dose: 12.5 mg/kg/injection, schedule: Q01DX009 (ip), vehicle: Klucel (hydroxypropylcellulose) (HPC)) 155 % of control; (dose: 13.0 mg/kg/injection, schedule: Q04DX003 (ip), vehicle: Klucel (hydroxypropylcellulose) (HPC)) 250 % of control and 204 % of control; (dose: 16.5 mg/kg/injection, schedule: Q01DX009 (ip), vehicle: Klucel (hydroxypropylcellulose) (HPC)) 250 % of control; (dose: 20.0 mg/kg/injection, schedule: Q04DX003 (ip), vehicle: Klucel (hydroxypropylcellulose) (HPC)) 260 % of control and 272 % of control; (dose: 25.0 mg/kg/injection, schedule: Q01DX009 (ip), vehicle: Klucel (hydroxypropylcellulose) (HPC)) 272 % of control and 280 % of control; under setting [9], 250 % of control. Moreover, the T/C runs as follows: under setting [4], 222 % of control; (dose: 30.0 mg/kg/injection, schedule: Q04DX003 (ip), vehicle: Klucel (hydroxypropylcellulose) (HPC)) 250 % of control and 272 % of control and 300 % of control; (dose: 35.0 mg/kg/injection, schedule: Q01DX009 (ip), vehicle: saline) 91 % of control; (dose: 40.0 mg/kg/injection, schedule: Q04DX003 (ip), vehicle: Klucel (hydroxypropylcellulose) (HPC)) 300 % of control; (dose: 44.0 mg/kg/injection, schedule: Q04DX003 (ip), vehicle: Klucel (hydroxypropylcellulose) (HPC)) 250 % of control; under setting [5], 272 % of control. The T/C runs as follows: (dose: 67.0 mg/kg/injection, schedule: Q04DX003 (ip), vehicle: Klucel (hydroxypropylcellulose) (HPC)) 241 % of control and 250 % of control and 300 % of control; under setting [6], 260 % of control and 150 % of control and 195 % of control; (dose: 150.0 mg/kg/injection, schedule: Q04DX003 (ip), vehicle: Klucel (hydroxypropylcellulose) (HPC)) 95 % of control; under setting [7], 86 % of control and 122 % of control.

Turning to `O.Oc1ccccc1C=NCCC[N-]CCCN=Cc1ccccc1O.[Co]`, the T/C under setting [3] was 114 % of control.

With `O=C(NC(=O)c1c(F)cccc1F)Nc1ccc(Cl)nc1`, under setting [1], the T/C is 91 % of control.

As for `Cn1ncc2cncnc21`, the T/C is, setting by setting: (dose: 100.0 mg/kg/injection, schedule: Q04DX003 (ip), vehicle: alcohol) 113 % of control; (dose: 200.0 mg/kg/injection, schedule: Q04DX003 (ip), vehicle: alcohol) 95 % of control; (dose: 400.0 mg/kg/injection, schedule: Q04DX003 (ip), vehicle: alcohol) 100 % of control.

With `C[N+]1(C)CCCCC1`, the T/C (dose: 12.5 mg/kg/injection, schedule: Q01DX009 (ip), vehicle: saline) was 95 % of control and 100 % of control; the T/C (dose: 12.5 mg/kg/injection, schedule: Q04DX003 (ip), vehicle: saline with Tween-80) was 101 % of control; the T/C under setting [9] was 98 % of control and 100 % of control; the T/C under setting [8] was 100 % of control.

For the compound `CC1(C)CCCC2(C)C3CCC(C31)C2OC(=O)c1ccc([N+](=O)[O-])cc1` (stereo unspecified), the T/C is 100 % of control (dose: 50.0 mg/kg/injection, schedule: Q01DX001 (ip), vehicle: saline with Tween-80); 100 % of control (dose: 100.0 mg/kg/injection, schedule: Q01DX001 (ip), vehicle: saline with Tween-80); 105 % of control (dose: 200.0 mg/kg/injection, schedule: Q01DX001 (ip), vehicle: saline with Tween-80).

Take `COc1ccc(C(C)=O)cc1OCc1ccccc1`: the T/C (dose: 50.0 mg/kg/injection, schedule: Q01DX009 (ip), vehicle: water) was 114 % of control; the T/C (dose: 100.0 mg/kg/injection, schedule: Q01DX009 (ip), vehicle: water) was 109 % of control; the T/C (dose: 100.0 mg/kg/injection, schedule: Q04DX003 (ip), vehicle: water) is 102 % of control; the T/C (dose: 200.0 mg/kg/injection, schedule: Q01DX009 (ip), vehicle: water) is 119 % of control; the T/C (dose: 200.0 mg/kg/injection, schedule: Q04DX003 (ip), vehicle: water) was 102 % of control; the T/C (dose: 400.0 mg/kg/injection, schedule: Q01DX009 (ip), vehicle: water) was 111 % of control. In addition, for the setting “dose: 400.0 mg/kg/injection, schedule: Q04DX003 (ip), vehicle: water”, the T/C was 111 % of control.

The record behind these values is PubChem BioAssay AID328 (DTP/NCI, 2004).
